PubChem BioAssay AID1963836 (Molecular Pharmacology Branch, DTP, NCI, 2024)

Test system: 857933-349-R-J2-PDC complex spheroid viability
Test: Anticancer human tumor 857933-349-R-J2-PDC patient-derived colon adenocarcinoma cell line growth inhibition [POLQ]
Settings: for IC50: curve of first compound; for viability, T/C: stronger effect = lower value; active = viability on the fitted dose curve at most 10% of control; inactive = the rest
Procedure, shortened: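 PDC + HUVEC + MSC complex spheroids; POLQ inhibitors ± partner drugs; top conc. at/near clinical Cmax, else 10 microM (SN-38 1 microM), half-log dilutions; 37 degrees C, 5% CO2.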

[1] = second compound 0.0316 µM, first compound 0.0316 µM
[2] = second compound 0.0316 µM, first compound 0.1 µM
[3] = second compound 0.0316 µM, first compound 0.316 µM
[4] = second compound 0.0316 µM, first compound 1 µM
[5] = second compound 0.1 µM, first compound 0.0316 µM
[6] = second compound 0.1 µM, first compound 0.1 µM
[7] = second compound 0.1 µM, first compound 0.316 µM
[8] = second compound 0.1 µM, first compound 1 µM
[9] = second compound 0.316 µM, first compound 0.0316 µM
[10] = second compound 0.316 µM, first compound 0.1 µM
[11] = second compound 0.316 µM, first compound 0.316 µM
[12] = second compound 0.316 µM, first compound 1 µM
[13] = second compound 1 µM, first compound 0.0316 µM
[14] = second compound 1 µM, first compound 0.1 µM
[15] = second compound 1 µM, first compound 0.316 µM
[16] = second compound 1 µM, first compound 1 µM
[17] = second compound 3.16 µM, first compound 0.0316 µM
[18] = second compound 3.16 µM, first compound 0.1 µM
[19] = second compound 3.16 µM, first compound 0.316 µM
[20] = second compound 3.16 µM, first compound 1 µM
[21] = second compound 10 µM, first compound 0.0316 µM
[22] = second compound 10 µM, first compound 0.1 µM
[23] = second compound 10 µM, first compound 0.316 µM
[24] = second compound 10 µM, first compound 1 µM
[25] = second compound 0.0316 µM, first compound 3.16 µM
[26] = second compound 0.0316 µM, first compound 10 µM
[27] = second compound 0.1 µM, first compound 3.16 µM
[28] = second compound 0.1 µM, first compound 10 µM
[29] = second compound 0.316 µM, first compound 3.16 µM
[30] = second compound 0.316 µM, first compound 10 µM
[31] = second compound 1 µM, first compound 3.16 µM
[32] = second compound 1 µM, first compound 10 µM
[33] = second compound 3.16 µM, first compound 3.16 µM
[34] = second compound 3.16 µM, first compound 10 µM
[35] = second compound 10 µM, first compound 3.16 µM
[36] = second compound 10 µM, first compound 10 µM
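Note: spheroids exposed to compounds for seven days before readout.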

COc1cccc(OCCCN)c1-c1cc(Nc2cnc(C#N)cn2)n[nH]1 + COC1C(OC(N)=O)C(O)C(Oc2ccc3c(O)c(NC(=O)c4ccc(O)c(CC=C(C)C)c4)c(=O)oc3c2C)OC1(C)C
89.5 nM: IC50 (second compound 0.0316 µM)
66.9 nM: IC50 (second compound 0.1 µM)
86.9 nM: IC50 (second compound 1 µM)
204 nM: IC50 (second compound 3.16 µM)
155 nM: IC50 (second compound 0.316 µM)
inactive: viability, T/C (second compound 0.0316 µM, first compound 0.00316 µM) 102% | viability, T/C (second compound 0.0316 µM, first compound 0.01 µM) 75.5% | viability, T/C [1] 61.3% | viability, T/C [2] 48.8% | viability, T/C [3] 44.1% | viability, T/C [4] 29.9% | viability, T/C (second compound 0.1 µM, first compound 0.00316 µM) 79.5% | viability, T/C (second compound 0.1 µM, first compound 0.01 µM) 113% | viability, T/C [5] 58.8% | viability, T/C [6] 51.5% | viability, T/C [7] 48.9% | viability, T/C [8] 35.4% | viability, T/C (second compound 0.316 µM, first compound 0.00316 µM) 85.2% | viability, T/C (second compound 0.316 µM, first compound 0.01 µM) 86.1% | viability, T/C [9] 62.6% | viability, T/C [10] 53.2% | viability, T/C [11] 48.5% | viability, T/C [12] 35.4% | viability, T/C (second compound 1 µM, first compound 0.00316 µM) 95% | viability, T/C (second compound 1 µM, first compound 0.01 µM) 84.2% | viability, T/C [13] 52.8% | viability, T/C [14] 51.2% | viability, T/C [15] 46.5% | viability, T/C [16] 32.2% | viability, T/C (second compound 3.16 µM, first compound 0.00316 µM) 93.7% | viability, T/C (second compound 3.16 µM, first compound 0.01 µM) 89.1% | viability, T/C [17] 79.5% | viability, T/C [18] 56.2% | viability, T/C [19] 47.5% | viability, T/C [20] 33.6% | viability, T/C (second compound 10 µM, first compound 0.00316 µM) 88% | viability, T/C (second compound 10 µM, first compound 0.01 µM) 77.7% | viability, T/C [21] 70.5% | viability, T/C [22] 54.2% | viability, T/C [23] 44% | viability, T/C [24] 31%
170 nM: IC50 (second compound 10 µM)

COc1cccc2c1C(=O)c1c(O)c3c(c(O)c1C2=O)CC(O)(C(=O)CO)CC3OC1CC(N)C(O)C(C)O1 (stereo not drawn) + COC1C(OC(N)=O)C(O)C(Oc2ccc3c(O)c(NC(=O)c4ccc(O)c(CC=C(C)C)c4)c(=O)oc3c2C)OC1(C)C
active: viability, T/C [4] 8.39% | viability, T/C [25] 0.35% | viability, T/C [26] 0.47% | viability, T/C [8] 5.48% | viability, T/C [27] 0.39% | viability, T/C [28] 0.29% | viability, T/C [12] 8.79% | viability, T/C [29] 0.37% | viability, T/C [30] 0.44% | viability, T/C [16] 6.1% | viability, T/C [31] 0.31% | viability, T/C [32] 0.43% | viability, T/C [20] 9.54% | viability, T/C [33] 0.51% | viability, T/C [34] 0.49% | viability, T/C [24] 10% | viability, T/C [35] 0.39% | viability, T/C [36] 0.49%
326 nM: IC50 (second compound 0.316 µM)
226 nM: IC50 (second compound 1 µM)
263 nM: IC50 (second compound 10 µM)
320 nM: IC50 (second compound 3.16 µM)
216 nM: IC50 (second compound 0.1 µM)
inactive: viability, T/C [1] 73.1% | viability, T/C [2] 80.2% | viability, T/C [3] 51.4% | viability, T/C [5] 64.2% | viability, T/C [6] 70.5% | viability, T/C [7] 41.3% | viability, T/C [9] 79.8% | viability, T/C [10] 76.2% | viability, T/C [11] 51.3% | viability, T/C [13] 70.9% | viability, T/C [14] 58.8% | viability, T/C [15] 45.6% | viability, T/C [17] 68.3% | viability, T/C [18] 68.2% | viability, T/C [19] 50.3% | viability, T/C [21] 75.1% | viability, T/C [22] 80.3% | viability, T/C [23] 43.5%
334 nM: IC50 (second compound 0.0316 µM)

Nc1ccn(C2OC(CO)C(O)C2(F)F)c(=O)n1 (stereo not drawn) + COC1C(OC(N)=O)C(O)C(Oc2ccc3c(O)c(NC(=O)c4ccc(O)c(CC=C(C)C)c4)c(=O)oc3c2C)OC1(C)C
164 nM: IC50 (second compound 1 µM)
159 nM: IC50 (second compound 0.0316 µM)
148 nM: IC50 (second compound 0.316 µM)
152 nM: IC50 (second compound 0.1 µM)
138 nM: IC50 (second compound 3.16 µM)
inactive: viability, T/C [1] 68.6% | viability, T/C [2] 63.7% | viability, T/C [3] 30.3% | viability, T/C [4] 17.6% | viability, T/C [25] 12.9% | viability, T/C [26] 11.4% | viability, T/C [5] 91.6% | viability, T/C [6] 63.3% | viability, T/C [7] 26.3% | viability, T/C [8] 17.3% | viability, T/C [27] 11.3% | viability, T/C [28] 11.4% | viability, T/C [9] 67.3% | viability, T/C [10] 64.5% | viability, T/C [11] 22.4% | viability, T/C [12] 16.8% | viability, T/C [29] 13.5% | viability, T/C [30] 10.9% | viability, T/C [13] 74.1% | viability, T/C [14] 68.5% | viability, T/C [15] 25.5% | viability, T/C [16] 19.6% | viability, T/C [31] 14.5% | viability, T/C [32] 7.53% | viability, T/C [17] 82.1% | viability, T/C [18] 59.4% | viability, T/C [19] 25.8% | viability, T/C [20] 16.8% | viability, T/C [33] 12.8% | viability, T/C [34] 11.8% | viability, T/C [21] 77.7% | viability, T/C [22] 65.6% | viability, T/C [23] 28.2% | viability, T/C [24] 14.9% | viability, T/C [35] 16.3% | viability, T/C [36] 11.8%
162 nM: IC50 (second compound 10 µM)

O=c1[nH]cc(F)c(=O)[nH]1 + COC1C(OC(N)=O)C(O)C(Oc2ccc3c(O)c(NC(=O)c4ccc(O)c(CC=C(C)C)c4)c(=O)oc3c2C)OC1(C)C
inactive: viability, T/C [1] 81.7% | viability, T/C [2] 110% | viability, T/C [3] 125% | viability, T/C [4] 71.1% | viability, T/C [25] 45.5% | viability, T/C [26] 24.6% | viability, T/C [5] 87.3% | viability, T/C [6] 91.5% | viability, T/C [7] 92.2% | viability, T/C [8] 58.1% | viability, T/C [27] 44.7% | viability, T/C [28] 30.3% | viability, T/C [9] 99.3% | viability, T/C [10] 87.2% | viability, T/C [11] 88.8% | viability, T/C [12] 70.9% | viability, T/C [29] 41% | viability, T/C [30] 28.4% | viability, T/C [13] 109% | viability, T/C [14] 92.1% | viability, T/C [15] 97.3% | viability, T/C [16] 63.8% | viability, T/C [31] 44.5% | viability, T/C [32] 30% | viability, T/C [17] 79.7% | viability, T/C [18] 86.3% | viability, T/C [19] 82.3% | viability, T/C [20] 85.3% | viability, T/C [33] 45.5% | viability, T/C [34] 29.3% | viability, T/C [21] 108% | viability, T/C [22] 74.4% | viability, T/C [23] 76.3% | viability, T/C [24] 76.2% | viability, T/C [35] 42.2% | viability, T/C [36] 29.3%
2760 nM: IC50 (second compound 3.16 µM)
2270 nM: IC50 (second compound 0.316 µM)
2560 nM: IC50 (second compound 10 µM)
1640 nM: IC50 (second compound 0.1 µM)
2220 nM: IC50 (second compound 1 µM)
1960 nM: IC50 (second compound 0.0316 µM)
